Reference: patent US8574551B2, “Compositions useful for reducing nephrotoxicity and methods of use thereof” (Verrow Pharmaceuticals, Inc., priority 2005, dated 2013)

Key:
kidney [1] = experiment: Renal pathology in EAE mice after MTX or MTX+Captisol; assay type: in vivo, C57BL6 mice; conditions: MTX 40 mg/kg single intravenous bolus, no Captisol
Procedure: Injection volume were between 100-120 μl. […] Leukovorin, the active metabolite of folic acid, is typically given with methotrexate in anti-cancer chemotherapy to help protect normal cells. Mice were scored daily for disease severity and then sacrificed on day 10 of disease. Brain, kidney and spleen were formalin fixed. […] For light microscopic investigation, kidneys were fixed in 10% buffered formalin and processed routinely for paraffin embedding. Tissue sections of 5 micron meter were stained with hematoxylin and eosine and examined under Nikon coolpix light microscope. The severity of total kidney damage was evaluated by a semiquantitative measurement of damage as described. Each tissue section of the kidney was assessed for degeneration of glomerular structure, glomerular crowding and congestion, dilation of bowman space, degeneration of proximal and distal tubules, and dilation of renal tubules, vascular congestion, and inflammatory cell infiltration. For glomerular atrophy, glomeruli that contained more than 20 nuclei were scored “0”, and those containing less than 10 nuclei were scored “4.” Intermediate stages were 1, 2 and 3. Other criterion was scored on a 0-3 scale: 0=none; 1=mild; 2=moderate; 3=severe. […]

kidney [2] = experiment: Captisol-MTX time studies, kidney histopathology at 24 hrs, 48 hrs, 1 week; assay type: in vivo, mice
Procedure: For light microscopic investigation, kidneys were fixed in 10% buffered formalin and processed routinely for paraffin embedding. Tissue sections of 5 micron meter were stained with hematoxylin and eosine and examined under a Nikon coolpix light microscope, photography was done with a Nikon Coolpix camera. The severity of total kidney damage was evaluated by a semiquantitative measurement of damage as described below. Each tissue section of the kidney was assessed for degeneration of glomerular structure, glomerular crowding and congestion, dilation of bowman space, degeneration of proximal and distal tubules, and dilation of renal tubules, vascular congestion, and inflammatory cell infiltration. For glomerular atrophy, glomeruli that contained more than 20 nuclei were scored “0”, and those containing less than 10 nuclei were scored “4.” Intermediate stages were 1, 2 and 3. Other criterion was scored on a 0-3 scale: 0=none; 1=mild; 2=moderate; and 3=severe. The microscopic score of each tissue was calculated as the sum of the scores given to each criterion and at least 100 nephrons (glomeruli plus surrounding tubules) were analyzed per section. See, e.g., Bhat et al., PNAS (2003) 100(7); Sener et al., Cell Biol Toxicol (2006) 22:[…].

[3] = MTX-captisol solubility: rate of precipitation of MTX at pH 5.0 in presence and absence of captisol; assay type: physicochemical; conditions: for Amount of MTX in solution 1:25 dilution: diluted sample, pH 5.0, MTX added 0.91 mg/ml; for conc. of MTX (molarity of mtx): pH 5.0, Concentration of MTX added 0.002M
Procedure: Solubility studies were performed to determine whether Captisol could prevent the precipitation of MTX over a time period greater than transit time of MTX through the kidney (i.e., less than 2 minutes). Each solution was acidified with HCl, centrifuged and aliquots of the supernatant removed as a function of time, and the concentration of MTX in solution was measured spectrophometrically.

kidney [4] = experiment: Histopathological changes in the kidney after single bolus intravenous MTX with or without captisol at different molar ratios; assay type: in vivo; conditions: normal mice, 48 hours
Procedure: A study of histopathological changes in the kidney after single bolus intravenous MTX with or without concurrent captisol at different molar ratios was performed.
MTX solutions were prepared as follows. Solution A (24 mg/ml (53 mM)) was prepared from stock solution of 25 mg/ml (Methotrexate from Bedford laboratories) in sterile PBS (total volume 6 mL). Solution B was prepared by diluting 3 ml of Solution A to 1:1.33 in PBS to obtain a working dilution of 18 mg/mL (39.6 mM), pH 7.4. Solution C was prepared by diluting 2 mL of solution A 1:2 to obtain a working dilution of 12 mg/mL (26.4 mM), pH 7.2.
MTX+Captisol solutions were prepared as follows. Solution D was made by adding 57.32 mg Captisol to an aliquot of 500 micro liter of solution A (molar ratio 1:1, neutral pH). […]
MTX and Captisol were administered to 8 groups of mice (Groups I-VIII; see Table 3) via tail vein by a single injection in a volume of 100-120 μL. […] Clinical symptoms, body weights were recorded. […]
Semi quantitative estimates of total kidney damage in mice treated with MTX 80 mg/kg, 120 mg/kg, and a combination of MTX+Captisol at MTX to Captisol molar ratio of 1:1 and 1:0.5, are shown in FIG. 4. […] Hematoxylin and eosin sections of paraffin embedded kidney were analyzed microscopically for extent of renal damage. Data is expressed as mean±SEM. […]

kidney [5] = experiment: Methotrexate induced nephrotoxicity model in mice, HPβCD; assay type: in vivo, C57BL/6 mice; conditions: normal mice; MTX 80 mg/kg single IV injection alone; 24 hrs
Procedure: To determine the protective effect of other cyclodextrin molecules, 2-hydroxypropyl β-cyclodextrin (HPβCD) was evaluated. Female C57BL/6 mice were injected intravenously with a single dose of methotrexate 80 mg/kg, IV, or methotrexate+HPβCD, IV, at methotrexate to HPβCD molar ratios of 1:1 and 1:0.5. The animals were sacrificed after 24 hrs. The development of glomerular and tubulointerstitial injury after methotrexate and protection by methotrexate+HPβCD was evaluated by means of assessment of renal histology by light microscopy. Leukovorin was given 4 hrs and after 18 hrs. Urine was not alkalinized.
Paraffin sections of […] were cut and stained with H&E and periodic acid Schiff (PAS). They were examined by light microscopy and scored in a blinded fashion. Five arbitratary fields at 40× magnification in each sections was assessed for the parameters, and scored according to the criteria, set forth in Example 7.

CN(Cc1cnc2nc(N)nc(N)c2n1)c1ccc(C(=O)N[C@@H](CCC(=O)O)C(=O)O)cc1 [MTX, N-[4-[[(2,4-diamino-6pteridinyl)methyl]methylamino]benzoyl]-L-glutamicacid]
kidney sections, morphological changes (kidney [1]): dilation of renal tubules and degeneration of proximal tubules | kidney histopathology (H&E) (kidney [2]; MTX 160 mg/kg alone, 24 hours post injection): degeneration of glomerular structure and dilation of Bowman's space, degeneration of proximal and distal tubules and inflammatory cell infiltration | kidney histopathology (H&E) (kidney [2]; MTX 160 mg/kg i.v. alone, 48 hours post injection): degeneration of glomerular structure, dilation of Bowman's space, dilation of proximal and distal tubules, degeneration of proximal and distal tubules and inflammatory cell infiltration | kidney histopathology (H&E) (kidney [2]; MTX 160 mg/kg single i.v. bolus alone, 1 week): degeneration of proximal and distal tubules with occasional glomerular atrophy or crowding | kidney tissue histopathological changes (FIG. 5) (kidney [2]; normal mice, MTX 160 mg/kg single iv bolus, 24 and 48 hours): extensive histopathological changes | Amount of MTX in solution 1:25 dilution ([3]; 5 min after adding acid): 3.449 µg/mL | Amount of MTX in solution 1:25 dilution ([3]; 10 min after adding acid): 2.509 µg/mL | Amount of MTX in solution 1:25 dilution ([3]; 15 min after adding acid): 3.177 µg/mL | Amount of MTX in solution 1:25 dilution ([3]; 20 min after adding acid): 3.844 µg/mL | Amount of MTX in solution 1:25 dilution ([3]; 30 min after adding acid): 3.807 µg/mL | Amount of MTX in solution 1:25 dilution ([3]; 40 min after adding acid): 3.3 µg/mL | Amount of MTX in solution 1:25 dilution ([3]; 50 min after adding acid): 3.412 µg/mL | Amount of MTX in solution 1:25 dilution ([3]; 60 min after adding acid): 3.906 µg/mL | conc. of MTX (molarity of mtx) ([3]; 5 min after adding acid): 189.7 µM | conc. of MTX (molarity of mtx) ([3]; 10 min after adding acid): 138 µM | conc. of MTX (molarity of mtx) ([3]; 15 min after adding acid): 174.7 µM | conc. of MTX (molarity of mtx) ([3]; 20 min after adding acid): 211.4 µM | conc. of MTX (molarity of mtx) ([3]; 30 min after adding acid): 209.4 µM | conc. of MTX (molarity of mtx) ([3]; 40 min after adding acid): 181.5 µM | conc. of MTX (molarity of mtx) ([3]; 50 min after adding acid): 187.6 µM | conc. of MTX (molarity of mtx) ([3]; 60 min after adding acid): 214.8 µM | kidney histopathology (H&E) (kidney [4]; MTX 80 mg/kg iv bolus alone): dilation of tubules, degenerative changes in the tubules, hypercellularity in the glomerulus and atypical collection of interstitial cells and convulated tubules | kidney histopathology (H&E) (kidney [4]; MTX 120 mg/kg IV alone): glomerular atrophy, degeneration of basement membrane on bowman capsule, degenerative changes in the tubules, hypercellularity in the glomerulus and infiltration of mononuclear cells | renal histology (kidney [5]): significant histopathological changes in the kidney
